# Test results published in US20100048545A1, “Compounds and Compositions for Use in the Prevention and Treatment of Disorders of Fat Metabolism and Obesity” (INNODIA INC., priority 2006, published 2010).
# “Also recorded” adds a separate entry of the source. Where a name gives a salt, the structure may show the parent alone.
# Legend:
# 3T3-L1 pre-adipocytes = assay: Lipid accumulation in 3T3-L1 adipocytes (Oil red O, OD 490 nm); type: cell-based; conditions: 7 days in differentiation medium, compared to controls
# Text: The objective of the study was to evaluate if the compounds of the present invention, and more particularly analogs of 4-Hydroxyisoleucine, can decrease the accumulation of lipids in pre-adipocytes induced to differentiate into functional adipocytes. […] Treating the fibroblasts with a differentiation medium containing insulin, dexamethasone and […] (IBMX) in the presence of serum induces these cells to become terminally differentiated adipocytes. These cells convert to spherical shape and accumulate lipid droplets.
# 3T3-L1 were cultured in presence of DMEM and 10% FBS for a week in 6-well plates. The medium was than changed to induce differentiation of cells into mature adipocytes. The medium consisted of DMEM, 10% FBS, 0.5 mM IBMX, 0.01 mg/ml insulin and 0.1 μM dexamethasone, with or without compounds of the present invention. The cells were cultured for 7 days and then stained with Oil red 0, a dye which specifically stain lipids. The fat content of treated and untreated cells was quantified by measuring the optical density (OD, 490 nm) with a spectrophotometer.
# [1] = test system: C57BL/6 mice fed a high fat diet; assay: Analogs and isomers of 4-hydroxyisoleucine on body weight gain in C57BL/6 mice fed a high fat diet, 3 days; type: in vivo; conditions: for body weight gain induced by the high fat diet: 100 mg/kg twice daily oral gavage; for efficacy relative to compound 14a: 100 mg/kg twice daily
# Protocol: C57BL/6 mice were received at 6-7 weeks of age and fed a standard commercial chow for 1 week (acclimation period). The animals were randomized based on their body weight values, into control and treatment groups (n=6). Then, animals were shifted to a high fat diet (60% of calories from fat) and treated twice daily by oral gavage with 4-hydroxyisoleucine (4-OH, compound 14a) or different analogs and isomers of 4-OH at the dose of 100 mg per kg of body weight for 3 days. The control group (Control HFD) received vehicle (water) alone and a group was kept under standard chow (Control Lean). Body weight of the mice was recorded daily. Two different experiments were run and the effect on body weight gain of selected analogs and isomers according to the invention is presented in FIG. 30A (Experiment 1) and FIG. 30B (Experiment 2).
# [2] = test system: Diet Induced Obesity (DIO)-Mice; type: in vivo
# Protocol: A total of 40 animals were used in the study. The animals were distributed into 5 groups (4 treated, 1 control group, all on high fat diet). Each group was composed of 8 animals.
# 4-OH was aliquoted and kept at 4° C. […] Mice from groups 4 and 5 were treated twice daily with 50 and 100 mg/kg of compound 65a. All groups were treated by oral gavage. Treatment commenced on Day 0 and ended on Day 7 (FIG. 37A). Body weights were measured daily.
# [3] = test system: Diet-Induced Obesity (DIO) mouse model; assay: Compound 13e on body weight gain in the Diet-Induced Obesity (DIO) mouse model, 21 days; type: in vivo, C57BL/6 mice
# Protocol: The objective of this study was to determine the effect of one analog according to the invention, namely Compound 13e, on body weight gain in the Diet-Induced Obesity (DIO) mouse model.
# C57BL/6 mice were received at 7-8 weeks of age and fed a high fat diet (60% of calories from fat) for 8 weeks. Fasted glycemia and body weight values were used to randomize the mice into control and treatment groups (n=8). The average basal glycemia was between 213 and 215 mg/dL for all groups. The animals were treated twice daily by oral gavage with Compound 13e (25 or 50 mg per kg of body weight), and the control group received vehicle (200 mM bicarbonate buffer/0.1% Tween-20™, pH=9) alone. The animals were treated for 21 days. Body weight of the mice was measured on a frequent basis during the treatment. At the end of the study, the epididymal fat pads were isolated and weighed. Data are expressed as mean±SEM of body weight and mean±SEM of fat pad weight.
# DIO-mice = test system: DIO-mice
# Text: The objective of this study was to evaluate the effect of chronic administration of 4-hydroxyisoleucine (4-OH, compound 14a) and Rosiglitazone, administered alone or in combination, on food consumption and body weight gain of DIO-mice. Both parameters were monitored for 1 week prior to the commencement of treatment, then for the 28 days of treatment and for an additional 7 days post-treatment.
# A total of 72 animals were used in the study. The animals were distributed into 6 groups (5 treated, 1 control group, all on high fat diet). Each group was composed of 12 animals. The mice were randomized according to body weight and basal glycemia values following a 5±0.5 hour fasting period.
# For the four weeks of treatment, the test articles were dissolved in reverse osmosis water. 4-Hydroxyisoleucine was aliquoted and kept at 4° C. (administration to groups 2, 3, and 6), while Rosiglitazone was freshly prepared daily and kept at 4° C. between the AM and PM administration to groups 4, 5, and 6. Control animals received reverse osmosis water twice daily (group 1). Mice from groups 2 and 3 were treated twice daily with 4-OH at 50 and 100 mg/kg, respectively. Animals from groups 4 and 5 received 1.5 and 5 mg/kg of Rosiglitazone, respectively. […] All groups were treated by oral gavage. Treatment commenced on Day 0 and ended on Day 28 (FIGS. 18A and 18C.
# Food consumption was measured and averaged on a weekly basis beginning one week before the start of treatment as shown in FIGS. 18B and 18D as week −1. Similarly, food consumption was monitored for one week after treatment was stopped and is shown as week 5 in FIGS. 18B and 18D, In FIG. 18B, the food consumption over time for various treatment groups is illustrated by the bar graph.
# obese mice = assay: Compound 22 and 4-hydroxyisoleucine on weight gain of obese mice, 21 days; type: in vivo, C57BL/6 mice
# Protocol: The objective of the following study was to evaluate the effect of the lactone form of 4-hydroxyisoleucine (compound 22) on the weight gain of obese mice. 40 C57BL/6 mice were fed a high fat diet (60% of calories from fat) for 6 weeks in order to induce obesity. Animals were than randomized to 5 study groups of 8 mice each according to their body weight values. Thereafter, the animals were treated orally twice daily with either the water vehicle, 50 mg/kg of compound 22, 100 mg/kg of compound 22, 50 mg/kg of 4-hydroxyisoleucine or 100 mg/kg of 4-hydroxyisoleucine. The treatment lasted 21 days and body weight of mice were determined daily from day 1 to day 21 of the study.
smiles,measurement,setting,value
"COC(=O)[C@@H]1C[C@H](O)CN1 [Compound 76, cis-4-hydroxyproline methyl ester HCl salt]",lipid accumulation,3T3-L1 pre-adipocytes; HCl salt,dose-dependently decreased the lipid accumulation; also recorded: decrease of accumulation of lipids
same,body weight gain induced by the high fat diet,[1],reduced body weight gain induced by the high fat diet
"C[C@H]([C@@H](C)O)[C@@H](N)C(=O)O [Compound 14aa, (2R,3S,4R)-4-Hydroxyisoleucine]",body weight gain induced by the high fat diet,[1],reduced body weight gain induced by the high fat diet
"O=C(O)[C@@H]1C[C@H](O)CN1 [Compound 75, cis-4-hydroxyproline]",lipid accumulation,3T3-L1 pre-adipocytes,dose-dependently decreased the lipid accumulation; also recorded: decrease of accumulation of lipids
same,body weight gain induced by the high fat diet,[1],reduced body weight gain induced by the high fat diet
CC(=O)N[C@@H]1C(=O)O[C@@H](C)[C@@H]1C [Compound 104],body weight gain induced by the high fat diet,[1],reduced body weight gain induced by the high fat diet
"CC1(O)CC(C(=O)O)NCC1O (stereo not shown) [Compound 65a, 4-methyl-4,5-dihydroxypipecolic acid]",efficacy relative to compound 14a,[1],greater efficacy than the SRS isomer of 4-OH
same,body weight gain induced by the high fat diet,[1],reduced body weight gain induced by the high fat diet
same,tolerability of treatment,"[2]; 50 and 100 mg/kg twice daily oral gavage, one week",well tolerated
same,weight gain,"[2]; 50 and 100 mg/kg twice daily, first week of treatment",moderation of weight gain was observed
same,food consumption,[2]; first week of treatment,slight decrease in food consumption
"N[C@H](C(=O)O)[C@@H]1CCCC[C@H]1O [Compound 13e, (S)-2-amino-2-((1S,2R)-2-hydroxycyclohexyl)acetic acid]",epididymal fat pad weight,[3]; 25 or 50 mg/kg twice daily,reduction of epididymal fat pad weight
same,body weight gain (delta of body weight from Day 0),[3]; 25 or 50 mg/kg twice daily oral gavage,reduction of body weight; also recorded: reduction in body weight gain compared to vehicle treated mice and this effect was dose-dependent
"CC(C)(C)C(O)CC(N)C(=O)O (stereo not shown) [Compound 62, 2-amino-4-hydroxy-5,5-dimethyl-hexanoic acid]",lipid accumulation,3T3-L1 pre-adipocytes,dose-dependently decreased the lipid accumulation; also recorded: decrease of accumulation of lipids
same,efficacy relative to compound 14a,[1],greater efficacy than the SRS isomer of 4-OH
same,body weight gain induced by the high fat diet,[1],reduced body weight gain induced by the high fat diet
"CN(CCOc1ccc(CC2SC(=O)NC2=O)cc1)c1ccccn1 (stereo not shown) [Rosiglitazone, reference compound]",food consumption,DIO-mice; Rosiglitazone 1.5 mg/kg alone,increase in food consumption
same,weight,"DIO-mice; Rosiglitazone alone, relative to the other groups",significant increase in weight relative to the other groups
COC(=O)[C@H]1C[C@@H](O)CN1 [Compound 202],body weight gain induced by the high fat diet,[1],reduced body weight gain induced by the high fat diet
CC1C(O)CN[C@@H]1C(=O)O (stereo partly shown) [Compound 22],body weight,"obese mice; 100 mg/kg orally twice daily, 21 days, vs water control, p<0.01",significant reduction of body weight compared to the water control group
same,white fat mass (epididymal fat),"obese mice; 100 mg/kg, end of treatment, p<0.01",loss of the white fat mass (epididymal fat)
same,weight loss relative to 4-hydroxyisoleucine,"obese mice; same dose level of 100 mg/kg, p<0.05",significantly greater than the weight loss caused by 4-hydroxyisoleucine
